# Earlier results, collected in patent US20030229111A1, “Naltrexone hydrochloride compositions” (priority 2002, published 2003).
# How the values were obtained:
# [1] = in vivo, po
smiles,measurement,setting,value
"O=C1CC[C@@]2(O)[C@H]3Cc4ccc(O)c5c4[C@@]2(CCN3CC2CC2)[C@H]1O5 [naltrexone, Naltrexone]",time within which rapidly absorbed,[1],≤ 1 h
same,protein binding,,approximately 21%
